Laboratory results reported in PMC9229817, “Synthesis of novel isoxazole–carboxamide derivatives as promising agents for melanoma and targeted nano-emulgel conjugate for improved cellular permeability” (BMC Chemistry, 2022).
Where “and” joins values, the source holds several entries; their conditions need not be identical. Identical values can stand only once. Like-named read-outs stand apart in the source and are kept apart here.

Key:
B16F1 [1] = assay: MTS assay, B16F1 melanoma cells; assay type: cell-based; settings: for IC50: MTS, 24 h treatment
Method: (§1) Hepatocellular carcinoma (Hep3B and HepG2), cervical adenocarcinoma (HeLa), breast carcinoma (MCF-7), melanoma (B16F1), colorectal adenocarcinoma (Caco-2), and colon adenocarcinoma (Colo205), as well as human hepatic stellate (LX-2) in addition to the normal cell line (Hek293T), were used as cancer and normal cell lines and were cultured in RPMI-1640 media and supplemented with 10.0% fetal bovine serum, 1.0% l-glutamine and 1.0% Penicillin/Streptomycin antibiotics. After that, the cells matured in a moist atmosphere with 5.0% CO2 at 37 °C. In a 96-well plate, the cells were seeded at 2.5 × 10^4 cells/well. After 72 h, the cells were confluent, the media was changed, and then the cells were incubated with various concentrations (300, 100, 50, 10, and 1 µM), as well as lower concentrations (500, 100, and 50 nM) were used, especially for compound 2e against the B16-F1 cancer cell line to calculate accurate IC50 values for the evaluated compounds (2a–2f) for 24 h. The viability of cells was assessed by the Cell Tilter 96® Aqueous One Solution Cell Proliferation (MTS) Assay according to the manufacturer’s procedures (Promega Corporation, Madison, WI). However, at the end of the treatment, about 20 μl/100 μl of MTS solution/media was added to each well and for 2 h, they were incubated at 37 °C. Finally, the absorbance was measured at 490 nm.

Colo205 = assay: MTS assay, Colo205 colon adenocarcinoma cells; assay type: cell-based; settings: for IC50: MTS, 24 h treatment; for viability at 50 µM: COLO 205, read-out: Cell viability percentage, Colo205
Method: as §1

HepG2 = assay: MTS assay, HepG2 hepatocellular carcinoma cells; assay type: cell-based; settings: for viability at 50 µM: read-out: Cell viability percentage, HepG2; for IC50: MTS, 24 h treatment
Method: as §1

CaCo-2 = assay: MTS assay, CaCo-2 colorectal adenocarcinoma cells; assay type: cell-based
Method: as §1

HeLa = assay: MTS assay, HeLa cervical adenocarcinoma cells; assay type: cell-based, Human; settings: 24 h treatment
Method: as §1

Hep3B = assay: MTS assay, Hep3B hepatocellular carcinoma cells; assay type: cell-based; settings: 24 h treatment
Method: as §1

MCF-7 = assay: MTS assay, MCF-7 breast carcinoma cells; assay type: cell-based, Human
Method: as §1

Hek293t = assay: MTS assay, normal cell line Hek293t; assay type: cell-based; settings: 24 h treatment
Method: as §1

[2] = test system: B16F1, Colo205, HepG2, and HeLa cancer cell lines; assay: MTS assay, IC50 range over a panel of cancer cell lines; assay type: cell-based
Method: as §1

B16F1 [3] = assay: MTS assay, B16F1 melanoma cells; assay type: cell-based; settings: compound versus its nano-emulgel at 1, 0.5, 0.1, 0.05, and 0.01 µM
[4] = test system: human hepatic stellate cell (HSC) line LX-2; assay: Anti-fibrotic activity, MTS viability of LX-2 cells; assay type: cell-based; settings: 1 µM
Method: Hepatocellular carcinoma (Hep3B and HepG2), cervical adenocarcinoma (HeLa), breast carcinoma (MCF-7), melanoma (B16F1), colorectal adenocarcinoma (Caco-2), and colon adenocarcinoma (Colo205), as well as human hepatic stellate (LX-2) in addition to the normal cell line (Hek293T), were used as cancer and normal cell lines and were cultured in RPMI-1640 media and supplemented with 10.0% fetal bovine serum, 1.0% l-glutamine and 1.0% Penicillin/Streptomycin antibiotics. After that, the cells matured in a moist atmosphere with 5.0% CO2 at 37 °C. In a 96-well plate, the cells were seeded at 2.5 × 10^4 cells/well. […] The viability of cells was assessed by the Cell Tilter 96® Aqueous One Solution Cell Proliferation (MTS) Assay according to the manufacturer’s procedures (Promega Corporation, Madison, WI). […] Finally, the absorbance was measured at 490 nm.
To explore the anti-fibrotic effects of these compounds on human hepatic stellate cell (HSC) line LX-2, the viability of LX-2 cells following various compounds' treatment was determined by the MTS assay.

[5] = Homo sapiens, Caco-2, 24 h treatment
[6] = Homo sapiens, MCF7, 24 h treatment

| Compound | IC50 (B16F1 [1]; Mus musculus, B16-F1) [µM] | IC50 (Colo205; Homo sapiens, COLO 205, 24 h) [µM] | IC50 (Colo205) [µM] | IC50 (HepG2; Homo sapiens, HepG2) [µM] | IC50 (CaCo-2; [5]) [µM] | IC50 (HeLa; Homo sapiens, HeLa) [µM] | IC50 (Hep3B; Homo sapiens, Hep3B) [µM] | IC50 (MCF-7; [6]) [µM] | IC50 (B16F1 [1]) [µM] | IC50 (HepG2) [µM] | IC50 (CaCo-2; 24 h treatment) [µM] | IC50 (HeLa) [µM] | IC50 (Hep3B) [µM] | IC50 (MCF-7; 24 h treatment) [µM] | IC50 (Hek293t; Homo sapiens, HEK-293T) [µM] | IC50 (Hek293t) [µM] | also measured |
| --- | --- | --- | --- | --- | --- | --- | --- | --- | --- | --- | --- | --- | --- | --- | --- | --- | --- |
| COc1cc(NC(=O)c2c(-c3ccccc3)noc2C)c(OC)cc1Cl [2a, N-(4–Chloro-2,5-dimethoxyphenyl)-5-methyl-3-phenylisoxazole-4–Carboxamide] | 29.7 ± 2.12 | 9.18 | 9.18 ± 0.88 | 7.55 ± 0.79 | 129 ± 2.47 | 40.8 ± 1.25 | > 200 | > 200 |  |  |  |  |  |  | 2.54 ± 1.4 |  | viability at 50 µM (Colo205; Homo sapiens): 39.4%; viability at 50 µM (HepG2; Homo sapiens, HepG2): 29.2%; IC50 ([2]; range over five cancer cell lines, read-out: IC50 range on five cancer cell lines): 7.54 to 129 µM; IC50 ([2]; range over four cancer cell lines, read-out: IC50 range against B16F1, Colo205, HepG2, and HeLa): 7.55 to 40.9 µM |
| Cc1onc(-c2ccccc2)c1C(=O)Nc1cccc(C(F)(F)F)c1 [2b, 5-Methyl-3-phenyl-N-(3-(trifluoromethyl)phenyl) isoxazole-4–Carboxamide] |  |  | > 200 |  |  |  |  |  | 42.9 ± 1.55 | 53.6 ± 2.04 | > 200 | > 200 | > 200 | > 200 |  | 148 ± 2.74 |  |
| COc1ccccc1Oc1ccc(NC(=O)c2c(-c3ccccc3)noc2C)cc1 [2c, N-(4-(2-Methoxyphenoxy)phenyl)-5-methyl-3-phenylisoxazole-4–Carboxamide] | 21.1 ± 0.78 | 183 ± 2.05 |  | 120 ± 2.19 | > 200 | > 200 | > 200 | > 200 |  |  |  |  |  |  | 20.2 ± 1.32 |  | melting point: 179 to 180 °C |
| O=c1[nH]cc(F)c(=O)[nH]1 [5-FU] |  |  |  |  |  |  |  |  |  |  |  |  |  |  |  |  | Cellular viability of LX-2 [4]: 95% and 94.64% |

Second part, led by results:

| IC50 (B16F1 [1]; Mus musculus, B16-F1) [µM] | IC50 (Colo205; Homo sapiens, COLO 205, 24 h) [µM] | IC50 (Colo205) [µM] | IC50 (HepG2; Homo sapiens, HepG2) [µM] | IC50 (CaCo-2; [5]) [µM] | IC50 (HeLa; Homo sapiens, HeLa) [µM] | IC50 (Hep3B; Homo sapiens, Hep3B) [µM] | IC50 (MCF-7; [6]) [µM] | IC50 (B16F1 [1]) [µM] | IC50 (HepG2) [µM] | IC50 (CaCo-2; 24 h treatment) [µM] | IC50 (HeLa) [µM] | IC50 (Hep3B) [µM] | IC50 (MCF-7; 24 h treatment) [µM] | Compound | IC50 (Hek293t; Homo sapiens, HEK-293T) [µM] | IC50 (Hek293t) [µM] | also measured |
| --- | --- | --- | --- | --- | --- | --- | --- | --- | --- | --- | --- | --- | --- | --- | --- | --- | --- |
| 39.8 ± 1.45 | 216.4 ± 1.58 |  | 37.9 ± 2.07 | > 200 | > 200 | > 200 | > 200 |  |  |  |  |  |  | CSc1ccc(NC(=O)c2c(-c3ccccc3)noc2C)cc1 [2d, 5-Methyl-N-(4-(methylthio)phenyl)-3-phenylisoxazole-4–Carboxamide] | > 200 |  | melting point: 144 to 146 °C |
|  |  | > 200 |  |  |  |  |  | 0.079 | > 200 | > 200 | > 200 | > 200 | > 200 | Cc1onc(-c2ccccc2)c1C(=O)Nc1ccc(OC(F)(F)F)cc1 [2e, 5-Methyl-3-phenyl-N-(4-(trifluoromethoxy)phenyl) isoxazole-4–Carboxamide] |  | 190 ± 2.67 | Cell viability percentage, B16F1 (B16F1 [1]; 50 µM): 18.42%; IC50 (B16F1 [3]): 0.079 µM |
|  |  | 75.4 ± 2.41 |  |  |  |  |  | 12.7 ± 1.01 | 38.4 ± 1.07 | > 200 | > 200 | 54.6 ± 2.11 | > 200 | Cc1onc(-c2ccccc2)c1C(=O)Nc1ccc(-c2cccs2)cc1 [2f, 5-Methyl-3-phenyl-N-(4-(thiophen-2-yl)phenyl) isoxazole-4–Carboxamide] |  | 7.91 ± 0.61 | Cell viability percentage, B16F1 (B16F1 [1]; 50 µM): 34.03%; Cellular viability of LX-2 [4]: 66.55% |
| 0.056 |  |  |  |  |  |  |  |  |  |  |  |  |  | COc1cccc2c1C(=O)c1c(O)c3c(c(O)c1C2=O)C[C@@](O)(C(=O)CO)C[C@@H]3O[C@H]1C[C@H](N)[C@H](O)[C@H](C)O1 [Dox, Doxorubicin, reference compound] |  |  | viability at 50 µM (B16F1 [1]; Mus musculus, B16-F1, 50 µM, read-out: Cell viability percentage, B16F1): 21.8%; viability at 50 µM (Colo205; Homo sapiens): 9.89%; viability at 50 µM (HepG2; Homo sapiens, HepG2): 9.46% |
